Reference: the supplement of paper PMC10307832

Tests used:
Assay in all cases: relative viability (nuclei count vs DMSO), 5 days (fraction); higher = more cells survive
A549 = test system: A549
Summary of the method: (§1)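 Lung cancer cell lines in 1536-well plates were dosed by pin tool the day after seeding, either with one drug alone or with a fixed anchor-drug dose plus five library-drug doses (not always all listed) in √10 steps. After 5 days, cells were fixed and their nuclei stained in one step (final 0.05% Triton X-100, 1% formaldehyde, 1 ug/ml Hoechst), then counted on 4× images. Relative viability is the nuclei count in treated wells divided by that in vehicle wells. Values are medians of duplicate plates.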

ABC-1 = test system: ABC-1
Summary of the method: as §1

Calu-6 = test system: Calu-6
Summary of the method: as §1

EBC-1 = test system: EBC-1
Summary of the method: as §1

EKVX = test system: EKVX
Summary of the method: as §1

HCC-44 = test system: HCC-44
Summary of the method: as §1

IA-LM = test system: IA-LM
Summary of the method: as §1

NCI-H1299 = test system: NCI-H1299
Summary of the method: as §1

NCI-H1703 = test system: NCI-H1703
Summary of the method: as §1

NCI-H1993 = test system: NCI-H1993
Summary of the method: as §1

NCI-H2085 = test system: NCI-H2085
Summary of the method: as §1

NCI-H2126 = test system: NCI-H2126
Summary of the method: as §1

RERF-LC-KJ = test system: RERF-LC-KJ
Summary of the method: as §1

Nc1ccn([C@@H]2O[C@H](CO)[C@@H](O)[C@@H]2O)c(=O)n1 [Cytarabine] + C[C@]1(O)C[C@@H](c2nc(-c3ccc4ccc(-c5ccccc5)nc4c3)c3c(N)nccn32)C1 [Linsitinib] (partner 1 µM)
relative viability (A549; first compound 0.005 µM): 0.579 | relative viability (A549; first compound 0.01581 µM): 0.499 | relative viability (A549; first compound 0.05 µM): 0.407 | relative viability (A549; first compound 0.1581 µM): 0.0819 | relative viability (A549; first compound 0.5 µM): 0.0375 | relative viability (ABC-1; first compound 0.005 µM): 0.699 | relative viability (ABC-1; first compound 0.01581 µM): 0.99 | relative viability (ABC-1; first compound 0.05 µM): 0.909 | relative viability (ABC-1; first compound 0.1581 µM): 0.71 | relative viability (ABC-1; first compound 0.5 µM): 0.487 | relative viability (Calu-6; first compound 0.005 µM): 0.928 | relative viability (Calu-6; first compound 0.01581 µM): 0.871 | relative viability (Calu-6; first compound 0.05 µM): 0.734 | relative viability (Calu-6; first compound 0.1581 µM): 0.444 | relative viability (Calu-6; first compound 0.5 µM): 0.283 | relative viability (EBC-1; first compound 0.005 µM): 0.742 | relative viability (EBC-1; first compound 0.01581 µM): 0.815 | relative viability (EBC-1; first compound 0.05 µM): 0.614 | relative viability (EBC-1; first compound 0.1581 µM): 0.461 | relative viability (EBC-1; first compound 0.5 µM): 0.296 | relative viability (EKVX; first compound 0.005 µM): 0.731 | relative viability (EKVX; first compound 0.01581 µM): 0.853 | relative viability (EKVX; first compound 0.05 µM): 0.945 | relative viability (EKVX; first compound 0.1581 µM): 0.585 | relative viability (EKVX; first compound 0.5 µM): 0.242 | relative viability (HCC-44; first compound 0.005 µM): 0.675 | relative viability (HCC-44; first compound 0.01581 µM): 0.664 | relative viability (HCC-44; first compound 0.05 µM): 0.384 | relative viability (HCC-44; first compound 0.1581 µM): 0.48 | relative viability (HCC-44; first compound 0.5 µM): 0.397 | relative viability (IA-LM; first compound 0.005 µM): 0.326 | relative viability (IA-LM; first compound 0.01581 µM): 0.763 | relative viability (IA-LM; first compound 0.05 µM): 0.357 | relative viability (IA-LM; first compound 0.1581 µM): 0.243 | relative viability (IA-LM; first compound 0.5 µM): 0.201 | relative viability (NCI-H1299; first compound 0.005 µM): 0.928 | relative viability (NCI-H1299; first compound 0.01581 µM): 1.07 | relative viability (NCI-H1299; first compound 0.05 µM): 1 | relative viability (NCI-H1299; first compound 0.1581 µM): 1.05 | relative viability (NCI-H1299; first compound 0.5 µM): 0.886 | relative viability (NCI-H1703; first compound 0.005 µM): 0.339 | relative viability (NCI-H1703; first compound 0.01581 µM): 0.346 | relative viability (NCI-H1703; first compound 0.05 µM): 0.166 | relative viability (NCI-H1703; first compound 0.1581 µM): 0.107 | relative viability (NCI-H1703; first compound 0.5 µM): 0.0904 | relative viability (NCI-H1993; first compound 0.005 µM): 0.703 | relative viability (NCI-H1993; first compound 0.01581 µM): 0.795 | relative viability (NCI-H1993; first compound 0.05 µM): 0.672 | relative viability (NCI-H1993; first compound 0.1581 µM): 0.539 | relative viability (NCI-H1993; first compound 0.5 µM): 0.471 | relative viability (NCI-H2085; first compound 0.005 µM): 0.677 | relative viability (NCI-H2085; first compound 0.01581 µM): 0.89 | relative viability (NCI-H2085; first compound 0.05 µM): 0.859 | relative viability (NCI-H2085; first compound 0.1581 µM): 0.585 | relative viability (NCI-H2085; first compound 0.5 µM): 0.55 | relative viability (NCI-H2126; first compound 0.005 µM): 0.71 | relative viability (NCI-H2126; first compound 0.01581 µM): 0.661 | relative viability (NCI-H2126; first compound 0.05 µM): 0.647 | relative viability (NCI-H2126; first compound 0.1581 µM): 0.486 | relative viability (NCI-H2126; first compound 0.5 µM): 0.474 | relative viability (RERF-LC-KJ; first compound 0.005 µM): 0.771 | relative viability (RERF-LC-KJ; first compound 0.01581 µM): 0.787 | relative viability (RERF-LC-KJ; first compound 0.05 µM): 0.757 | relative viability (RERF-LC-KJ; first compound 0.1581 µM): 0.474 | relative viability (RERF-LC-KJ; first compound 0.5 µM): 0.458
